“Also recorded” adds a separate entry of the source.
How the values were obtained:
[1] = in some diets; cited from earlier work
[2] = test system: Sprague Dawley rats; assay: Rat hemoglobin regeneration method, relative iron bioavailability (modified AOAC); assay type: in vivo
Experimental: The relative iron availability of various iron compounds in a ready-to-eat breakfast cereal was tested using a widely accepted method, commonly referred to as the rat hemoglobin regeneration method, (modified AOAC method for assessment of relative iron bioavailability), see Williams, S. ed. Official methods of analysis of the Association of Official Analytical Chemists, 14th ed. Arlington, Va. AOAC, 1984; Fritz, J. C. et al., Collaborative Study of rat hemoglobin repletion test for bioavailability of iron, AOAC 1974, 57: 513-517. The testing for relative bioavailability of the various iron compounds was carried out in a series of separate experiments. In each of these experiments, ferrous sulfate was used as the standard or control compound.
Sprague Dawley rats, individually housed in temperature and light controlled units, were fed an iron deficient diet obtained from Harland Tekland Laboratories for 24 days. After this iron depletion phase, the rats were weighed and blood was drawn to test for baseline hemoglobin concentrations. These anemic animals, with hemoglobin levels between […], were then randomly assigned to the control and test groups. Ferrous sulfate and the iron compounds in the cereal were added at concentrations of 6 and 18 and 24 mg iron/kg to the control and test diets. These diets were then fed to groups of ten animals, ad libitum, for 14 days. Iron levels in the diets, were verified by atomic absorption spectrometry (Bolin et al., J. Assoc. Off. Anal. Chem. 1977, 60: 1170-1174). After the 14 day test period, hemoglobin concentrations were determined for all animals.
The bioavailability of each iron source tested relative to ferrous sulfate, was calculated by comparing gain in hemoglobin with the iron concentration in the diet by the slope ratio procedure (Finney, D. J., Statistical methods in biological assay. 2nd ed. 1964; Amine et L., Biological assessment of available iron in food products, J. Agric. Food Chem. 1974, 22: 470-476.). […]

[3] = Oxidative stability of iron fortified cereals in hot room (hexanal, rancid odor, off odor); assay type: physicochemical; settings: for Off Odor Value / Rancid Odor Value / Hexanal Value: measured at two and four weeks (interval of value not stated); for Hexanal Value: ± 95% confidence interval
Experimental: The feasibility of using other iron sources was also tested. […] The individual tests are discussed in further detail below.
These samples were used for comparative stability and sensory analysis.
In order to test the stability of the iron fortified cereals, the R-T-E cereal samples prepared using four different sources of iron were placed in a hot room and exposed to a temperature of 100° F. over a four week period. Measurements were taken at two and four week intervals.

Compound	Bioavailability versus FeSO4 complex [1]	Slope Value (gain in hemoglobin vs iron concentration in the diet) ([2]; 6, 18 and 24 mg iron/kg diet, 14 days, ± 95% confidence interval)	Iron bioavailability / absorption, result in words ([2]; anemic rats, versus ferrous sulfate and reduced iron)	Stability in continuing stability tests ([3]; expected in continuing tests)	Oxidative stability (rancid odor, off odor, hexanal), result in words ([3]; hot room 100° F., four weeks)	Off Odor Value ([3]; hot room 100° F.)	Rancid Odor Value ([3]; hot room 100° F.)	Hexanal Value ([3]; hot room 100° F.)	Slope Ratio (bioavailability relative to ferrous sulfate) ([2]; rat, in vivo, 20160 min)
O=C([O-])CN(CCN(CC(=O)[O-])CC(=O)[O-])CC(=O)[O-].[Fe+3].[Na+] [Ferric EDTA, sodium ferric ethylenediaminetetraacetic acid complex]	two to three times more bioavailable	0.31 ± 0.03	absorbed at a rate not significantly different from ferrous sulphate and significantly better than reduced iron; also recorded: superior in bioavailability to reduced iron	expected to improve in stability in comparison to the other ferric samples tested	statistically significant lower level of rancid odor, off odor and hexanal value; also recorded: most stable of the products tested with the lowest hexanal, rancid odor and off odor values	0.78 ± 0.44	0.56 ± 0.43	0.40 ± 0.22	
O=C([O-])/C=C/C(=O)[O-].[Fe+2] [Ferrous Fumarate, ferrous fumarate, reference compound]						2.67 ± 0.41	2.89 ± 0.62	2.37 ± 1.00	
ferrous sulfate [reference compound]						2.33 ± 0.48	1.22 ± 0.57	2.13 ± 2.02	1.00

Source: patent publication US5667825A (Kellogg Company, priority 1996, dated 1997)
